Where “and” joins values, the source holds several entries; their conditions need not be identical. Equal values may be shown once. Toxic doses and inconclusive results are not listed. How the source made its calls: active means survival T/C of 150% or more; inactive means T/C below 125% in these data.
Test system: P388 leukemia ip, CD2F1 mice, survival T/C
Experiment: NCI In Vivo Anticancer Drug Screen. Data for tumor model P388 Leukemia (intraperitoneal) in CD2F1 (CDF1) mice
Conditions: endpoint: median survival time, higher = longer survival
Method in brief: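 Mice carrying the transplanted tumor received test compound or vehicle. Survival was recorded in each group, and the value is the treated-group measurement divided by that of the vehicle-treated control group.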

[1] = dose: 50.0 mg/kg/injection, schedule: Q01DX009 (ip), vehicle: Klucel (hydroxypropylcellulose) (HPC)
[2] = dose: 50.0 mg/kg/injection, schedule: Q01DX009 (ip), vehicle: saline with Tween-80
[3] = dose: 100.0 mg/kg/injection, schedule: Q01DX009 (ip), vehicle: Klucel (hydroxypropylcellulose) (HPC)
[4] = dose: 100.0 mg/kg/injection, schedule: Q01DX009 (ip), vehicle: saline with Tween-80
[5] = dose: 200.0 mg/kg/injection, schedule: Q01DX009 (ip), vehicle: Klucel (hydroxypropylcellulose) (HPC)
[6] = dose: 200.0 mg/kg/injection, schedule: Q01DX009 (ip), vehicle: saline with Tween-80

Measured: T/C

Cc1ccc(-c2cc(C(=O)NN)c(C#N)c(=O)[nH]2)cc1
inactive: dose: 60.0 mg/kg/injection, schedule: Q01DX005 (ip), vehicle: suspension in saline 97 % of control | dose: 120.0 mg/kg/injection, schedule: Q01DX005 (ip), vehicle: suspension in saline 100 % of control | dose: 240.0 mg/kg/injection, schedule: Q01DX005 (ip), vehicle: suspension in saline 100 % of control

CC(=NCc1ccccc1)c1ccccc1O
inactive: [1] 99 % of control | [2] 106 % of control | [3] 93 % of control | [4] 116 % of control | [5] 92 % of control | [6] 98 % of control | dose: 400.0 mg/kg/injection, schedule: Q01DX009 (ip), vehicle: saline with Tween-80 109 % of control

c1ccc(N/N=C2/CCN3CCCc4cccc2c43)cc1
inactive: dose: 12.5 mg/kg/injection, schedule: Q04DX003 (ip), vehicle: DMSO 100 % of control | dose: 25.0 mg/kg/injection, schedule: Q04DX003 (ip), vehicle: DMSO 101 % of control | dose: 50.0 mg/kg/injection, schedule: Q04DX003 (ip), vehicle: DMSO 110 % of control

COc1cccc2c1C(=O)c1c(O)c3c(c(O)c1C2=O)C[C@@](O)(C(C)=O)C[C@@H]3OC1CC(NC(C)C)C(O)C(C)O1 (stereo partly specified)
inactive: dose: 0.2 mg/kg/injection, schedule: Q01DX009 (ip), vehicle: water 97 % of control | dose: 0.39 mg/kg/injection, schedule: Q01DX009 (ip), vehicle: water 103 % of control | dose: 0.78 mg/kg/injection, schedule: Q01DX009 (ip), vehicle: water 115 % of control | dose: 4.7 mg/kg/injection, schedule: Q04DX003 (ip), vehicle: water 109 % of control | dose: 9.4 mg/kg/injection, schedule: Q04DX003 (ip), vehicle: water 107 % of control and 113 % of control | dose: 18.8 mg/kg/injection, schedule: Q04DX003 (ip), vehicle: water 120 % of control | dose: 150.0 mg/kg/injection, schedule: Q04DX003 (ip), vehicle: water 106 % of control and 91 % of control
active: dose: 6.25 mg/kg/injection, schedule: Q01DX009 (ip), vehicle: water 157 % of control and 174 % of control | dose: 12.5 mg/kg/injection, schedule: Q01DX009 (ip), vehicle: water 199 % of control

CC1=C/C(=N\[Se]c2ccccc2)C(=O)C(C)=C1
inactive: dose: 100.0 mg/kg/injection, schedule: Q04DX003 (ip), vehicle: Klucel (hydroxypropylcellulose) (HPC) 100 % of control | dose: 200.0 mg/kg/injection, schedule: Q04DX003 (ip), vehicle: Klucel (hydroxypropylcellulose) (HPC) 91 % of control | dose: 400.0 mg/kg/injection, schedule: Q04DX003 (ip), vehicle: Klucel (hydroxypropylcellulose) (HPC) 96 % of control

N#CC(=C1C=CC(=NO)C=C1)c1ccccc1
inactive: [6] 115 % of control

CCCCC1(CC(=O)OCC)SCCN1C(N)=O (stereo unspecified)
inactive: [1] 100 % of control | [3] 108 % of control | [5] 106 % of control

O=[N+]([O-])c1ccc(Br)cc1
inactive: dose: 50.0 mg/kg/injection, schedule: Q01DX009 (ip), vehicle: saline 106 % of control | dose: 100.0 mg/kg/injection, schedule: Q01DX009 (ip), vehicle: saline 108 % of control | dose: 200.0 mg/kg/injection, schedule: Q01DX009 (ip), vehicle: saline 101 % of control

COC1/C=C/OC2(C)Oc3c(C)c(O)c4c(O)c(c(/C=N/N5C(C)CN(Cc6cccc(O)c6)CC5C)c(O)c4c3C2=O)NC(=O)/C(C)=C\C=C\C(C)C(O)C(C)C(O)C(C)C(OC(C)=O)C1C (stereo unspecified)
inactive: [2] 102 % of control | [4] 100 % of control | [6] 118 % of control

O=C1N(c2ccccc2)C(=O)C2(N(c3ccccc3)CCN2c2ccccc2)N1c1ccccc1
inactive: dose: 100.0 mg/kg/injection, schedule: Q04DX002 (ip), vehicle: saline with Tween-80 88 % of control | dose: 200.0 mg/kg/injection, schedule: Q04DX002 (ip), vehicle: saline with Tween-80 89 % of control | dose: 400.0 mg/kg/injection, schedule: Q04DX002 (ip), vehicle: saline with Tween-80 88 % of control

O=C1CCCCC1C1(O)C(=O)Nc2ccccc21 (stereo unspecified)
inactive: dose: 60.0 mg/kg/injection, schedule: Q01DX005 (ip), vehicle: saline 98 % of control | dose: 120.0 mg/kg/injection, schedule: Q01DX005 (ip), vehicle: saline 89 % of control | dose: 240.0 mg/kg/injection, schedule: Q01DX005 (ip), vehicle: saline 89 % of control

Source: PubChem BioAssay AID330 (DTP/NCI, 2004)
